Holding throughout (test): NCI anticancer screen, dose series, 48 h
Experiment [1] relates to SF-539 CNS.
Experiment [2] relates to OVCAR-5 ovarian.
The test system of experiment [3] is OVCAR-4 ovarian.
In experiment [4] the test system is SK-OV-3 ovarian.
Experiment [5] concerns OVCAR-3 ovarian.
In experiment [6] the test system is TK-10 renal.
Experiment [7] has as its system KM12 colon.
The test system of experiment [8] is SNB-75 CNS.
The subject of experiment [9] is NCI/ADR-RES ovarian.
Experiment [10] has as its system MDA-MB-231 breast.
The subject of experiment [11] is PC-3 prostate.

The structures appear in SMILES notation.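 Exposure lasted 48 hours, with cells grown in 96-well plates and compounds tested at five concentrations. The concentration for 50% growth inhibition is given as GI50. TGI denotes the concentration required for complete inhibition of growth.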

For the compound `O=C(Nc1ccccc1[N+](=O)[O-])C(=O)C(C(=O)c1ccccc1-c1ccccc1)C1OC(=O)c2ccccc21` (stereo unspecified), the TGI in experiment [1] is 29.2 µM; in experiment [2], 36.8 µM; in [3], greater than 100 µM; in experiment [4], greater than 100 µM; in experiment [5], 28 µM; in [6], 47.1 µM. In addition, the TGI in experiment [7] turned out to be 30.6 µM; in experiment [8], 53.4 µM.

In the case of `O=C1COc2cc3c(cc2N1)SCCC(=O)N3`, the TGI in experiment [1], in experiment [3], in experiment [4], in experiment [5], in experiment [6] and in experiment [7] was greater than 100 µM throughout. This compound also returned a TGI in [8] greater than 100 µM.

`C=CCN(N=O)C(=O)N(CCCCC(NC(C)=O)C(=O)NCc1ccccc1)Cc1ccccc1` (stereo unspecified): the TGI in experiment [1], in experiment [2], in experiment [3], in experiment [4], in [5] and in experiment [6] was greater than 100 µM in each case. Besides, the TGI in [7] and in experiment [8] was greater than 100 µM in each case.

As to `Cc1ccc(S(=O)(=O)OI(O)CC(F)(F)F)cc1`, the TGI in [9], in experiment [1], in experiment [2], in experiment [3], in experiment [4] and in [5] was greater than 100 µM in each case. In addition, the TGI in [6], in experiment [10], in experiment [7], in experiment [8] and in experiment [11] was greater than 100 µM in each case.

For the compound `O=c1cc(-c2ccc3ccccc3c2)[nH]c2ncccc12`, the TGI in experiment [9] is greater than 100 µM; in [1] it was 64.9 µM; in experiment [2] it was greater than 100 µM; in [3], greater than 100 µM; in experiment [4] it was greater than 100 µM; in experiment [5], greater than 100 µM. Further, the TGI in [6] is greater than 100 µM; in experiment [10] it was greater than 100 µM; in experiment [7], greater than 100 µM; in [8], 62.6 µM; in [11], greater than 100 µM. The GI50 was 8.25 µM in experiment [5] and 10.4 µM in [11].

With `CC(=O)OC1CC2C(C)(C)OC(=O)CC(OC(C)=O)[C@]2(C)C2CCC3(C)C(=CCC3c3ccoc3)[C@]12C` (stereo partly specified), the TGI in experiment [1] is 93.3 µM; in experiment [2], greater than 100 µM; in [3] it was greater than 100 µM; in [4], 54.1 µM; in experiment [5], 60 µM; in [6] it was greater than 100 µM. For the same compound, the TGI is greater than 100 µM in experiment [7] and 83.5 µM in experiment [8].

In the case of `O=c1[nH]c2cc3[nH]c(=O)c(=O)[nH]c3cc2[nH]c1=O`, the TGI in experiment [9], in [1], in experiment [2], in [4], in experiment [5] and in [6] was greater than 100 µM each time. Moreover, the TGI in experiment [10], in experiment [7], in [8] and in experiment [11] was greater than 100 µM throughout.

In the case of `Cn1nc(S(N)(=O)=O)s/c1=N/S(=O)(=O)c1ccc(N)cc1`, the TGI in experiment [9], in experiment [1], in experiment [2], in [3], in experiment [4] and in experiment [5] was greater than 100 µM each time. Also, the TGI in experiment [6], in experiment [10], in [7], in experiment [8] and in experiment [11] was greater than 100 µM each time.

For `C/C(CC(=O)Nc1ccccc1)=N\NC(N)=S`, the TGI in [1], in [2], in experiment [4], in experiment [5], in experiment [6] and in experiment [7] was greater than 100 µM each time. Moreover, the TGI in experiment [8] is greater than 100 µM.

Consider `O=C(NN1C(=O)C(Cl)C1c1cccc(Cl)c1)c1ccccc1O` (stereo unspecified), for which the TGI in [1], in experiment [3], in experiment [4], in [5], in [6] and in [7] was greater than 100 µM throughout. Further, in experiment [8], the TGI was greater than 100 µM.

As for `O=[N+]([O-])c1cc(Cl)ccc1S(=O)(=O)c1ccc(Cl)cc1[N+](=O)[O-]`, the TGI in experiment [1] is 32.7 µM; in experiment [2], 34 µM; in experiment [3] it was 37.2 µM; in [4] it was 29.4 µM; in experiment [5], 31.1 µM; in [6], 31.5 µM. In addition, the results for the TGI in [7] and in [8] were 27.7 µM and 29.7 µM, respectively.

As for `O=c1[nH]cc(COCC(O)CO)c(=O)[nH]1` (stereo unspecified), the TGI in experiment [1], in experiment [2], in experiment [3], in experiment [4], in [5] and in [6] was greater than 100 µM each time. The TGI in experiment [7] and in experiment [8] was greater than 100 µM throughout.
